For data set [1], the system named is THP1 AML cells. The data set is described as follows: Cell proliferation assay, THP1 AML cells. The class given is cell-based, human. Particulars: FIG. 2, FIG. 7. On the procedure: (§1) Cell proliferation, cell cycle, and apoptosis assays. For cell proliferation assays, manual cell counts were performed by culturing cells in 24- or 48-well plates. Viable cells were counted using trypan blue exclusion and cell density was re-adjusted in each well every 3-5 days. For cell cycle assays, the Click-iT™ EdU Flow Cytometry Assay system (Invitrogen) was used following the manufacturer's instructions. For apoptosis assays, apoptotic and necrotic cells were analyzed by use of Annexin V/DAPI staining.

Data set [2] concerns THP1 AML cells. In words: Survival of mice injected with THP1 cells expressing PAK1 shRNA. In kind it is in vivo. Particulars: for liver infiltration of leukemia cells: animals receiving THP1 with shRNA vs control cells, not illustrated; for survival of mice: mice injected with 300,000 THP1 cells expressing shRNA, vs non-silencing control shRNA, FIG. 12B. On the procedure:
FIG. 12A-12B, Evaluation of PAK1 expression reduction in THP1 AML cells by shRNAs, A) Evaluated mRNA levels by RT-gPCR.
The effects on survival of reduced PAK1 expression in THP1 AML cells when expression was reduced by shRNAs was evaluated in mice.

In a further data set the test system is STAT4. The data set is described as follows: STAT4 expression in THP1 cells (Western Blot, qRT-PCR). In kind it is cell-based, human. The settings on record: FIG. 10. On the procedure:
FIG. 10A-10B. STAT4 expression is increased upon treatment with Compound 1 (IPA-3) or PAKI shRNA knockdown in THP1 cells. A) Western Blot; B) qRT-PCR.
Quantitative real-time PCR. Total RNA was extracted from FACS-sorted cells or cultured cells using RNeasy Micro kit (Qiagen, Valencia, Calif.). cDNA was synthesized by Superscript II reverse transcriptase (Invitrogen, Carlsbad, Calif.). Real-time PCR was performed using an iQ5 real-time PCR detection system (BIO-RAD, Hercules, Calif.) with 1 cycle of 50° C. (2 min) and 95° C. (10 min) followed by 40 cycles of 95° C. (15 sec) and 60° C. (1 min) using Power SYBR Green PCR master mix (AB, Carlsbad, Calif.).
Western blotting. Total cell lysates were extracted in lysis buffer (50 mM Tris-Cl (pH 7.5), 1 mM EDTA, 150 mM NaCl, 1%NP-40, 1% sodium deoxycholate, 1 mM PMSF, and protease inhibitor (Roche)). Anti-Hlx polyclonal rabbit antibody (SantaCruz, clone H-130, sc-135014) and anti-actin polyclonal goat antibody (Santa Cruz, clone C-11, sc1615) were used as primary antibodies, […] anti-rabbit or anti-goat antibody (Santa Cruz) were used as secondary antibodies. ECL solution (Pierce) was used for detection.
(§2) In contrast, STAT4 expression is increased upon treatment with Compound 1 or PAK1 shRNA knockdown in THP1 cells (FIG. 10).
A general note: In western blotting, separated proteins are transferred to a membrane and probed.

The subject of data set [3] is AML and MDS cells isolated from the bone marrow of AML and MDS patients. In words: Growth of primary patient AML/MDS cells versus healthy donor hematopoietic cells. In kind it is cell-based, human. The settings on record: primary bone marrow and peripheral blood samples; *p<0.05, **p<0.01; FIG. 5. Here is the method: The experiments illustrated in FIG. 5 were performed using primary bone marrow and peripheral blood samples given by healthy donors and by patients with acute myeloid leukemia.

Another data set has as its system MOLM13. In words: Cell proliferation assay, MOLM13 AML cells. In kind it is cell-based, human. Particulars: FIG. 2. On the procedure:
as §1

A further data set relates to HL60 AML cells. In words: Cell proliferation assay, HL60 AML cells. The class given is cell-based, human. Particulars: FIG. 2, FIG. 3. On the procedure:
as §1

The next data set has as its system KG1a AML cells. In words: Cell proliferation assay, KG1a AML cells. The class given is cell-based, human. The settings on record: FIG. 2. Here is the method: as §1
Data set [4] relates to cells from a patient with myelodysplastic syndrome (MDS). The data set is described as follows: Colony formation of cells from a patient with myelodysplastic syndrome. The class given is cell-based, human. The settings on record: FIG. 8. Here is the method: FIG. 8. Compound 1-mediated inhibition of PAK1: effects on colony formation of cells from a patient with myelodysplastic syndrome (MDS). Inhibition of PAKI is effective in both myelodysplastic syndrome (MDS) and acute myeloid leukemia (AML).
(§3) Colony, formation assays and serial replating assays. Assays were performed in MethoCult M3434 (Stern Cell Technologies, Vancouver, BC) containing IL-3, IL-6, SCF, and EPO or in MethoCult M3234 supplemented with M-CSF or GM-CSF as previously described (Higuchi et al, 2002; Huntly et al, 2004;Will et al, 2009). GFP+ colonies were scored 8-10 days after plating using an AXIOVERT 200M microscope (Zeiss, Maple Grove, Minn.). After scoring, GFP+ cells were re-sorted after each round and then serial replating assays were carried out. Cells were replated and colonies were again scored after 10-14 days.
FIG. 8 illustrates Compound 1-mediated inhibition of PAK1 effects on colony formation of cells from a patient with myelodysplastic syndrome (MDS) Inhibition of PAK1 is effective in both myelodysplastic syndrome (MDS) and acute myeloid leukemia (AML). See also FIG. 5.

The subject of data set [5] is downstream signaling pathways of PAK1. The data set is described as follows: Phosphorylation status of kinases in THP1 leukemia cells. In kind it is cell-based, human. The settings on record: 4 hours, 6 μg/ml IPA-3 vs DMSO, FIG. 9.
From the text: FIG. 9. Effect of Compound 1 (IPA-3) on downstream signaling pathways of PAKI.
as §2

The test system of data set [6] is AML cells. In words: Apoptosis assay (Annexin V/DAPI), AML cells. The class given is cell-based. Particulars: 24 hours of incubation, FIG. 6. On the procedure:
FIG. 6. […] 24 hours of incubation with Compound 1 (assay by Annexin V/DAPI), Black—Percentage of live cells; Grey—Percentage of apoptotic cells.
as §1

Data set [7] has as its system AML cells. The data set is described as follows: Colony formation assay, AML cells. Particulars: FIG. 4. The class given is cell-based. Here is the method: as §3

With `Cc1nc(Nc2n[nH]c3c2CN(C(=O)N[C@H](CN(C)C)c2ccccc2)C3(C)C)c2sccc2n1` [Compound 2, (S)-N-(2-(dimethylamino)-1-phenylethyl)-6,6-dimethyl-3-((2-methylthieno[3,2-d]pyrimidin-4-yl)amino)-4,6-dihydropyrrolo[3,4-c]pyrazole-5(1H)-carboxamide], the “proliferation of THP1 AML cells” value in the data set on THP1 AML cells [1] is “reduces proliferation”.

“shRNA #1: short hairpin sequence for human PAK1, CGATGAGAAATACCAGCACTA, expressed by lentivirus (the letters are possibly those of the target site)”: in the data set on THP1 AML cells [2], the “liver infiltration of leukemia cells” value is recorded as “Significantly less liver infiltration of leukemia cells” and the survival of mice entry is “Significant prolongation of survival”.

With “shRNA #2: short hairpin sequence for human PAK1, GCGATCCTAAGAAGAAATATA, expressed by lentivirus (the letters are possibly those of the target site)”, in the data set with THP1 AML cells [2], the “liver infiltration of leukemia cells” value is on record as “Significantly less liver infiltration of leukemia cells” and the survival of mice result was “Significant prolongation of survival”. Also, the “long-term survival of some mice” value in the data set on THP1 AML cells [2] (entire duration of the assay (90 days)) is recorded as “long-term survival”.

For the molecule `Oc1ccc2ccccc2c1SSc1c(O)ccc2ccccc12` [Compound 1, 1,1′-Disulfanediyldinaphthalen-2-ol], in the data set on STAT4, the STAT4 expression entry is “increased”. Also, the “effect on growth of AML and MDS patient cells compared with healthy hematopoietic cells” value in [3] is “greater effect”. In addition, the “proliferation of MOLM13 AML cells” value in the data set with MOLM13 is “reduces proliferation”. Moreover, in the data set with HL60 AML cells, the “proliferation of HL60 AML cells” value is listed as “reduces proliferation”. Moreover, in the data set on KG1a AML cells, the “proliferation of KG1a AML cells” value is reported as “reduces proliferation”. Also, in data set [4], the “colony formation of cells from a patient with MDS” value was “effective”. Besides, the “several additional oncogenic signaling pathways (kinase phosphorylation status)” value in data set [5] is listed as “significantly inhibited”. Further, the “apoptosis in AML cells” value with AML cells [6] is “induces apoptosis”. Further, in the data set on THP1 AML cells [1], the “proliferation of THP1 AML cells” value is on record as “reduces proliferation”. In addition, the “colony formation ability of AML cells” value with AML cells [7] was “reduces colony formation ability”.

These data come from patent US20150359815A1, “PAK1 INHIBITION FOR TREATMENT OF ACUTE MYELOID LEUKEMIA AND MYELODYSPLASTIC SYNDROMES” (ALBERT EINSTEIN COLLEGE OF MEDICINE OF YESHIVA UNIVERSITY, priority 2013, published 2015).
